Laboratory results published in patent US10683296B2, “TLR7 agonist trifluoroacetate salt and crystalline form B thereof, preparation methods and uses” (CHIA TAI TIANQING PHARMACEUTICAL GROUP CO., LTD., priority 2016, dated 2020).

Legend:
[1] = Stability tests of crystal form B (high temperature, high humidity, light); assay type: physicochemical; settings: general statement; no data of Examples 2-4 printed
Experimental: The crystal form B prepared in Example 1 was tested in the accelerated test under high temperature conditions for stability in accordance with Guidelines for the Stability Test of Pharmaceutical Ingredients and Pharmaceutical Preparations (Chinese Pharmacopoeia 2010 Appendix XIXC).
The crystal form B was placed in an open-clean container at 60° C. The samples were taken for test on day 10, day 20 and day 30, respectively. The results were compared with the initial test result on day 0.
The crystal form B prepared in Example 1 was tested in the accelerated test under high humidity conditions for stability in accordance with Guidelines for the Stability Test of Pharmaceutical Ingredients and Pharmaceutical Preparations (Chinese Pharmacopoeia 2010 Appendix XIXC).
The crystal form B was subjected to an accelerated test in a constant temperature and humidity vessel under the conditions of 40° C./75% humidity (open). The samples were taken for test on day 30, day 60 and day 90, respectively. The results were compared with the initial test result on day 0.
The crystal form B prepared in Example 1 under light conditions was tested for stability in accordance with Guidelines for the Stability Test of Pharmaceutical Ingredients and Pharmaceutical Preparations (Chinese Pharmacopoeia 2010 Appendix XIXC).
The crystal form B was placed in an illumination environment of 5000 Lx±500 Lx. […]

[2] = system: human peripheral blood mononuclear cells (PBMC); assay: Peripheral blood mononuclear cell cytokine stimulating test; assay type: cell-based; settings: for TNF-α MEC / IFN-α MEC: human PBMC, 24 h, CBA flow cytometry; for IFN-α MEC: lowest drug concentration stimulating the production of 30 pg/mL of IFN-α
Experimental: The purpose of this example is to determine the expression level of cytokines 24 h after stimulation to human peripheral blood mononuclear cells (PBMC) with the compound of formula I.
The cell supernatant was assayed without dilution and the levels of IFN-α were directly determined. The compound of formula was firstly formulated into 20 mM DMSO stock solution and was gradient diluted with cell medium in 10-fold with the total number of 11 diluting points. The compounds in 9 diluting points (the highest concentration was 200 μmol/L) were added into 96-well plate with 50 μL in each well. Fresh human peripheral blood mononuclear cells were inoculated, with 150 μL in each well containing 450,000 cells. The cell culture plate was incubated in an incubator at 37° C., 5% CO2 for 24 h. After incubation, the culture plate was centrifuged at 1200 rpm for 5 min and the supernatant was collected and stored at −20° C. for determination. The determination of cytokine was performed using Cytometric Bead Array (CBA) of BD-Pharmingen on flow cytometer. Using the above determining method, the lowest drug concentration stimulating the production of 30 pg/mL of IFN-α was designated as the MEC value in the cytokine stimulating test.

[3] = molecular target: T1, Toll-like receptor 7 (HEK-blue hTLR7 cell) (Homo sapiens, UniProt Q9NYK1); assay: Toll-like receptor 7 in vitro receptor binding activity screen (HEK-blue hTLR7 cell, alkaline phosphatase reporter); assay type: cell-based; settings: versus control GS-9620
T1 construct: host or cells: HEK-blue hTLR7 cell (HEK293-derived reporter line)
T1 sequence (Q9NYK1 27-1049): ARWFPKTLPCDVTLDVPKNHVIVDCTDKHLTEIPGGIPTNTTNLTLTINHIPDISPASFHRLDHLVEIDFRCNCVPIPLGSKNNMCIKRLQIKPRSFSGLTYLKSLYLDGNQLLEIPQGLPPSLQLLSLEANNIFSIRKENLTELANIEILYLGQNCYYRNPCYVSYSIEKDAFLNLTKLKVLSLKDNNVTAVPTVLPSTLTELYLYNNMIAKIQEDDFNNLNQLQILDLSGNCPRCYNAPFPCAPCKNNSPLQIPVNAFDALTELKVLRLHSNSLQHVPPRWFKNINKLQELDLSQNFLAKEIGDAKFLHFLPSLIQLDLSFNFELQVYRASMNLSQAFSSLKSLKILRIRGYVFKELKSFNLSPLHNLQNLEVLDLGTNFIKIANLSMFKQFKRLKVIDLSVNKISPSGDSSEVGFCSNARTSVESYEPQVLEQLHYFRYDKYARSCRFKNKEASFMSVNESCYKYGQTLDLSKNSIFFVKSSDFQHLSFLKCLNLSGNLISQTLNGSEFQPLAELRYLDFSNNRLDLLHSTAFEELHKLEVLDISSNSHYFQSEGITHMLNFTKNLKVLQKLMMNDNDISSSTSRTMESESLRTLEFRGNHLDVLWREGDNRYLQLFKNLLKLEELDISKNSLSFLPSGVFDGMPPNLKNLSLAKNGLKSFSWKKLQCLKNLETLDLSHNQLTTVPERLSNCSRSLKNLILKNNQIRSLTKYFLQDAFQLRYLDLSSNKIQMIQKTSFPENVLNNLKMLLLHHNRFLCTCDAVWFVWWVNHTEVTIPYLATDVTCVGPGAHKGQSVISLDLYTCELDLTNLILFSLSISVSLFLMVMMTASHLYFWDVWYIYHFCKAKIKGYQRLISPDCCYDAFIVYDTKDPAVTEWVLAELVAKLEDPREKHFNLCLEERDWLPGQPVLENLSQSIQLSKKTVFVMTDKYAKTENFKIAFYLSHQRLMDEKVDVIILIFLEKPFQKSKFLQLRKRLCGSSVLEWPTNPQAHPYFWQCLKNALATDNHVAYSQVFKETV
Experimental: (§1) • HEK-blue hTLR7 cell and HEK-blue hTLR8 cell (available from InvivoGen) • DMEM medium • heat inactivated fetal bovine serum • Anti Mycoplasma reagent Normocin™ • bleomycin • blasticidin
(§2) The structures of GS-9620 and R848 used are as follows, wherein the preparation of GS-9620 could be referred to the process disclosed in US20100143301; R848 was commercially available from ABGENT (IMG-2208, specification: 0.5 mg).
(§3) The compounds were gradient diluted with DMSO in 3-fold using liquid work station POD starting at a concentration of 10 mmol/L and 10 points were diluted (2nd column to 11th column, and each point was duplicated). At 12th column, 1 μL of 5 mg/mL positive compound R848 was added as positive control; and at 1st column, 1 μL of DMSO was added as negative control. Each well contained 1 μL of DMSO. • 2. The cells in culture flask were collected and the cell density was diluted to 250,000 cells/mL. • 3. 200 μL (50,000 cells/well) of cell suspension was added into prepared compound plate and the final concentration of DMSO in each well was 0.5%. • 4. The culture plates containing cells and the compounds were incubated in CO2 incubator for 24 h at 37° C., 5% CO2. • 5. […] After 1 h, the content of alkaline phosphatase in 20 μL of supernatant was determined using Microplate Reader OD650. • 7. […]

[4] = molecular target: T2, Toll-like receptor 8 (HEK-blue hTLR8 cell) (Homo sapiens, UniProt Q9NR97); assay: Toll-like receptor 8 in vitro receptor binding activity screen (HEK-blue hTLR8 cell, alkaline phosphatase reporter); assay type: cell-based; settings: versus control GS-9620
T2 construct: host or cells: HEK-blue hTLR8 cell (HEK293-derived reporter line)
T2 sequence (Q9NR97 27-1041): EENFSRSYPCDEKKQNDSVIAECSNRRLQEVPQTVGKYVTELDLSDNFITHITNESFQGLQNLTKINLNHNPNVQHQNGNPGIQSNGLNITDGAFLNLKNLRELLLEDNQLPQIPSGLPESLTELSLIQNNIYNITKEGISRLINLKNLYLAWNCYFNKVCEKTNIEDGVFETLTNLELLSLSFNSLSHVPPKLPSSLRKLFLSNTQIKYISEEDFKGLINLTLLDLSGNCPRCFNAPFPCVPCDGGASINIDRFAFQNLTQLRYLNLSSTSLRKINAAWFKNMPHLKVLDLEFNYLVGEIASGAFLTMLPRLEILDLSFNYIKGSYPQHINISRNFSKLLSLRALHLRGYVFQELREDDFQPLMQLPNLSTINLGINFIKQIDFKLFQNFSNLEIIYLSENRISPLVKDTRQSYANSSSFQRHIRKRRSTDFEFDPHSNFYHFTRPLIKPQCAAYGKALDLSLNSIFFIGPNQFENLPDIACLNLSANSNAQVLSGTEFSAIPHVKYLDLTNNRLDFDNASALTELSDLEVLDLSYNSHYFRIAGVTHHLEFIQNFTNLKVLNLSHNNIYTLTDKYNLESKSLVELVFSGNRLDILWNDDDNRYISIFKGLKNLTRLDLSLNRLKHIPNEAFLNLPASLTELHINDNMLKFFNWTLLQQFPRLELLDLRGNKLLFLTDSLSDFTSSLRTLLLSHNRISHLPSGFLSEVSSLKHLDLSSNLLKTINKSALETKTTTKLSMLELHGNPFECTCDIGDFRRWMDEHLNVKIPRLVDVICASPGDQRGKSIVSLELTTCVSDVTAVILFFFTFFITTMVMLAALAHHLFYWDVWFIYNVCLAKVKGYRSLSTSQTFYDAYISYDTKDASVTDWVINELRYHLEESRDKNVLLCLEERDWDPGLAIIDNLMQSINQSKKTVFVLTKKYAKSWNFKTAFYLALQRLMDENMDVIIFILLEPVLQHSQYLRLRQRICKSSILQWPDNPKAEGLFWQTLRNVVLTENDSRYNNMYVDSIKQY
Experimental: as §1, §2, §3

| Structure (SMILES) | stability of the crystal form [1] | TNF-α MEC [2] [nM] | IFN-α MEC [2] [nM] | in vitro receptor binding activity to Toll-like receptor 7 compared with the control GS-9620 [3] | in vitro receptor binding activity to Toll-like receptor 8 compared with the control GS-9620 [4] | TNF-α inducing activity compared with the control GS-9620 ([2]; versus control GS-9620) | in vitro IFN-α inducing activity of PBMCs compared with the control GS-9620 ([2]; versus control GS-9620) |
| --- | --- | --- | --- | --- | --- | --- | --- |
| CCCCOc1nc(N)c2[nH]cc(Cc3ccc(CN4CCCC4)cc3)c2n1.O=C(O)C(F)(F)F [Crystal Form B of Trifluoroacetate of 2-butoxy-7-(4-(pyrrolidin-1-ylmethyl)benzyl)-5H-pyrrolo[3,2-d]pyrimidin-4-amine] | good stability | – | – | – | – | – | – |
| CCCCOc1nc(N)c2c(n1)N(Cc1cccc(CN3CCCC3)c1)CC(=O)N2 [GS-9620, reference compound] | – | 500 | 50 | – | – | – | – |
| CCCCOc1nc(N)c2[nH]cc(Cc3ccc(CN4CCCC4)cc3)c2n1 [The compound of formula I, 2-butoxy-7-(4-(pyrrolidin-1-ylmethyl)benzyl)-5H-pyrrolo[3,2-d]pyrimidin-4-amine] | – | 500 | 5 | higher | lower | comparable | better |
